Data taken from PubChem BioAssay AID248 (DTP/NCI, 2004).
Several values for one entry are separate records, joined by “and”; a condition that tells them apart may be missing. Equal values may be shown once. Inconclusive results and toxic doses are left out. Rule as the data show it: active = T/C of 150% or more; inactive = T/C below 125%.

System: L1210 leukemia ip in BDF1 mice, survival T/C
Assay: NCI In Vivo Anticancer Drug Screen. Data for tumor model L1210 Leukemia (intraperitoneal) in B6D2F1 (BDF1) mice
Details: endpoint: mean survival time, higher = longer survival
Outline: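 Value reflects the ratio of survival in compound-treated mice to survival in vehicle-treated controls, with both groups carrying the same transplanted tumor.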

[1] = dose: 100.0 mg/kg/injection, schedule: Q04DX003 (ip), vehicle: saline
[2] = dose: 200.0 mg/kg/injection, schedule: Q04DX003 (ip), vehicle: saline
[3] = dose: 400.0 mg/kg/injection, schedule: Q04DX003 (ip), vehicle: saline
[4] = dose: 50.0 mg/kg/injection, schedule: Q01DX001 (ip), vehicle: saline
[5] = dose: 100.0 mg/kg/injection, schedule: Q01DX001 (ip), vehicle: saline
[6] = dose: 100.0 mg/kg/injection, schedule: Q04DX002 (ip), vehicle: Klucel (hydroxypropylcellulose) (HPC)
[7] = dose: 100.0 mg/kg/injection, schedule: Q04DX002 (ip), vehicle: saline with Tween-80
[8] = dose: 200.0 mg/kg/injection, schedule: Q04DX002 (ip), vehicle: Klucel (hydroxypropylcellulose) (HPC)
[9] = dose: 400.0 mg/kg/injection, schedule: Q04DX002 (ip), vehicle: Klucel (hydroxypropylcellulose) (HPC)
[10] = dose: 100.0 mg/kg/injection, schedule: Q01DX009 (ip), vehicle: saline with Tween-80
[11] = dose: 100.0 mg/kg/injection, schedule: Q04DX003 (ip), vehicle: saline with Tween-80
[12] = dose: 200.0 mg/kg/injection, schedule: Q04DX003 (ip), vehicle: saline with Tween-80
[13] = dose: 25.0 mg/kg/injection, schedule: Q01DX009 (ip), vehicle: saline with Tween-80
[14] = dose: 50.0 mg/kg/injection, schedule: Q01DX009 (ip), vehicle: saline with Tween-80

Measured: T/C

COc1ccc(CCNC(c2ccccc2)c2ccccc2)cc1OC
inactive: [1] 105 % of control | [2] 108 % of control | [3] 105 % of control

O=C(O)CNCc1cc(=O)[nH]c(=O)[nH]1
inactive: [1] 94 % of control | [2] 97 % of control | [3] 105 % of control

COc1ccc(OC)c2c1CCCC2
inactive: dose: 100.0 mg/kg/injection, schedule: Q01DX009 (ip), vehicle: Klucel (hydroxypropylcellulose) (HPC) 106 % of control | dose: 200.0 mg/kg/injection, schedule: Q01DX009 (ip), vehicle: Klucel (hydroxypropylcellulose) (HPC) 117 % of control

S=c1[nH]ccs1
inactive: dose: 25.0 mg/kg/injection, schedule: Q01DX001 (ip), vehicle: saline 100 % of control | [4] 98 % of control | [5] 98 % of control and 99 % of control

O=C(O)/C=C(/Oc1ccc(Cl)cc1Cl)C(=O)O
inactive: [6] 97 % of control | [7] 100 % of control | [8] 87 % of control | dose: 200.0 mg/kg/injection, schedule: Q04DX002 (ip), vehicle: saline with Tween-80 100 % of control | [9] 110 % of control | dose: 400.0 mg/kg/injection, schedule: Q04DX002 (ip), vehicle: saline with Tween-80 100 % of control

O=C(Nc1ccccc1)c1cc(Cl)ccc1O
inactive: [10] 95 % of control | [11] 86 % of control | dose: 200.0 mg/kg/injection, schedule: Q01DX009 (ip), vehicle: saline with Tween-80 95 % of control | [12] 94 % of control | dose: 400.0 mg/kg/injection, schedule: Q01DX009 (ip), vehicle: saline with Tween-80 95 % of control | dose: 400.0 mg/kg/injection, schedule: Q04DX003 (ip), vehicle: saline with Tween-80 87 % of control

O=[N+]([O-])c1ccc(Cl)c(I)c1
inactive: dose: 12.5 mg/kg/injection, schedule: Q01DX009 (ip), vehicle: saline with Tween-80 94 % of control | [13] 94 % of control | dose: 50.0 mg/kg/injection, schedule: Q01DX009 (ip), vehicle: saline + alcohol 92 % of control | [14] 94 % of control | dose: 200.0 mg/kg/injection, schedule: Q01DX009 (ip), vehicle: saline + alcohol 92 % of control

COc1c(N)cc2c(c1C)OC(C)(C)C=C2
inactive: [13] 109 % of control | [14] 101 % of control | [11] 101 % of control and 94 % of control | [12] 100 % of control

CCCCCCCCCCCCC(CCCCCCCCCCC)CCCCCCCCCCCC
inactive: dose: 100.0 mg/kg/injection, schedule: Q01DX001 (ip), vehicle: saline with Tween-80 97 % of control | dose: 200.0 mg/kg/injection, schedule: Q01DX001 (ip), vehicle: saline with Tween-80 97 % of control | dose: 400.0 mg/kg/injection, schedule: Q01DX001 (ip), vehicle: saline with Tween-80 96 % of control

Cc1c2cc3c(c1O)C(=O)CC(O3)c1ccc(O)c(c1)-c1cccc(c1O)C(=O)OCC1OC(O2)C(O)C(O)C1O (stereo not given)
inactive: dose: 0.13 mg/kg/injection, schedule: Q01DX009 (ip), vehicle: Klucel (hydroxypropylcellulose) (HPC) 104 % of control | dose: 0.25 mg/kg/injection, schedule: Q01DX009 (ip), vehicle: Klucel (hydroxypropylcellulose) (HPC) 97 % of control | dose: 0.5 mg/kg/injection, schedule: Q01DX009 (ip), vehicle: Klucel (hydroxypropylcellulose) (HPC) 98 % of control | dose: 1.0 mg/kg/injection, schedule: Q01DX009 (ip), vehicle: Klucel (hydroxypropylcellulose) (HPC) 103 % of control

CP(=O)(CCP(=O)(c1ccccc1)c1ccccc1)c1ccccc1 (stereo not given)
inactive: dose: 25.0 mg/kg/injection, schedule: Q04DX002 (ip), vehicle: saline with Tween-80 94 % of control | dose: 50.0 mg/kg/injection, schedule: Q04DX002 (ip), vehicle: saline with Tween-80 106 % of control | [7] 97 % of control

CCOc1ccc(Cl)cc1Cl
inactive: dose: 100.0 mg/kg/injection, schedule: Q04DX002 (ip), vehicle: saline 109 % of control | dose: 200.0 mg/kg/injection, schedule: Q04DX002 (ip), vehicle: saline 113 % of control | dose: 400.0 mg/kg/injection, schedule: Q04DX002 (ip), vehicle: saline 106 % of control

CCCCCCCCCC(=O)N1CCCCCC1
inactive: [6] 98 % of control | [8] 95 % of control | [9] 88 % of control

CCCCOC(=S)SSC(=S)OCCCC
inactive: [13] 97 % of control | [14] 93 % of control | [10] 103 % of control and 104 % of control

COc1ccc(C(C)=O)cc1
inactive: dose: 100.0 mg/kg/injection, schedule: Q04DX002 (ip), vehicle: saline + alcohol 92 % of control | dose: 200.0 mg/kg/injection, schedule: Q04DX002 (ip), vehicle: saline + alcohol 96 % of control | dose: 400.0 mg/kg/injection, schedule: Q04DX002 (ip), vehicle: saline + alcohol 92 % of control

Cc1cc(=S)[nH]c2ccccc12
inactive: dose: 75.0 mg/kg/injection, schedule: Q04DX003 (ip), vehicle: saline 100 % of control | dose: 150.0 mg/kg/injection, schedule: Q04DX003 (ip), vehicle: saline 100 % of control | dose: 300.0 mg/kg/injection, schedule: Q04DX003 (ip), vehicle: saline 100 % of control

C=C(CC(N)=O)C(=O)O (tested in a mixture with another compound)
inactive: dose: 6.25 mg/kg/injection, schedule: Q01DX009 (ip), vehicle: saline 97 % of control | dose: 12.5 mg/kg/injection, schedule: Q01DX009 (ip), vehicle: saline 100 % of control | dose: 20.0 mg/kg/injection, schedule: Q01DX009 (ip), vehicle: saline 105 % of control | dose: 25.0 mg/kg/injection, schedule: Q01DX009 (ip), vehicle: saline 105 % of control | dose: 35.0 mg/kg/injection, schedule: Q01DX009 (ip), vehicle: saline 94 % of control | [4] 107 % of control | dose: 50.0 mg/kg/injection, schedule: Q01DX009 (ip), vehicle: saline 106 % of control | dose: 65.0 mg/kg/injection, schedule: Q01DX009 (ip), vehicle: saline 102 % of control | [5] 118 % of control | dose: 100.0 mg/kg/injection, schedule: Q01DX009 (ip), vehicle: saline 111 % of control | dose: 125.0 mg/kg/injection, schedule: Q01DX009 (ip), vehicle: saline 119 % of control | dose: 177.0 mg/kg/injection, schedule: Q01DX001 (ip), vehicle: saline 110 % of control | dose: 200.0 mg/kg/injection, schedule: Q01DX001 (ip), vehicle: saline 107 % of control | dose: 200.0 mg/kg/injection, schedule: Q01DX009 (ip), vehicle: saline 111 % of control | dose: 266.0 mg/kg/injection, schedule: Q01DX001 (ip), vehicle: saline 124 % of control | dose: 270.0 mg/kg/injection, schedule: Q01DX001 (ip), vehicle: saline 110 % of control | dose: 270.0 mg/kg/injection, schedule: Q01DX009 (ip), vehicle: saline 120 % of control and 123 % of control | dose: 400.0 mg/kg/injection, schedule: Q01DX001 (ip), vehicle: saline 111 % of control | dose: 400.0 mg/kg/injection, schedule: Q01DX009 (ip), vehicle: saline 101 % of control and 111 % of control and 117 % of control | dose: 600.0 mg/kg/injection, schedule: Q01DX001 (ip), vehicle: saline 114 % of control | dose: 600.0 mg/kg/injection, schedule: Q01DX009 (ip), vehicle: saline 113 % of control | dose: 800.0 mg/kg/injection, schedule: Q01DX001 (ip), vehicle: saline 122 % of control | dose: 1000.0 mg/kg/injection, schedule: Q01DX001 (ip), vehicle: saline 113 % of control
